The results in this text go back to US7166598B2, “Piperazine derivatives” (Astellas Pharma Inc., priority 1998, dated 2007).

Test system in one data set: not given
Test: not given
Details: not given
What is called melting point is the temperature, or range, at which the solid turns liquid. `Cl.Cl.O=C(c1cc(C(F)(F)F)cc(C(F)(F)F)c1)N1CCN(CCCc2cccnc2)C[C@H]1Cc1ccc(Cl)cc1` returned a melting point of 60 to 100 °C.

Consider `COc1cc(C(=O)N2CCN(Cc3cnn(C)c3)C[C@H]2Cc2ccc(Cl)c(O)c2)cc(C(F)(F)F)c1.Cl`, for which the melting point lay within 140 to 150 °C. Still for that read-out and setting: with `Cc1ccc(C[C@@H]2CN(Cc3cnn(CCO)c3)CCN2C(=O)c2cc(C(F)(F)F)cc(C(F)(F)F)c2)cc1O.Cl` the figure was 140 to 156 °C.

On to `Cc1ccc(C[C@@H]2CN(CCN3CCc4sccc4C3)CCN2C(=O)c2cc(C(F)(F)F)cc(C(F)(F)F)c2)cc1O.Cl.Cl`, for which the melting point lay in the range of 245 to 265 °C. Still for that read-out and setting: with `C[C@@H]1CN(CCN2CCN(C(=O)c3cc(-n4cccc4)cc(C(F)(F)F)c3)[C@H](Cc3ccc(Cl)cc3)C2)C[C@H](C)O1.Cl.Cl` the figure was 152.7 to 157.9 °C. As to `C[C@@H]1CN(CCN2CCN(C(=O)c3cc(Cl)cc(C(F)(F)F)c3)[C@H](Cc3ccc(Cl)cc3)C2)C[C@H](C)O1.Cl.Cl`, the melting point was in the range of 136.4 to 141 °C.

Compound `Cc1ccc(C[C@@H]2CN(Cc3nc(N(C)C)no3)CCN2C(=O)c2cc(C(F)(F)F)cc(C(F)(F)F)c2)cc1O.Cl.Cl` displayed a melting point of 140 to 150 °C. On the same count and under the same terms, with `COC[C@@H]1CN(CCN2CCN(C(=O)c3cc(C(F)(F)F)cc(C(F)(F)F)c3)[C@H](Cc3ccc(C(F)(F)F)cc3)C2)C[C@H](COC)O1.Cl.Cl` the figure was 130 to 138 °C; with `CS(=O)(=O)c1cc(C(=O)N2CCN(CCN3CCc4ncccc4C3)C[C@H]2Cc2ccc(C(F)(F)F)cc2)cc(C(F)(F)F)c1.Cl.Cl.Cl`, 192 to 197 °C; with `C[C@@H]1CN(CCN2CCN(C(=O)c3cc(-c4ccncc4)cc(C(F)(F)F)c3)[C@H](Cc3ccc(C(F)(F)F)cc3)C2)C[C@H](C)O1.Cl.Cl.Cl`, 135 to 145 °C. As for `COC[C@@H]1CN(CCN2CCN(C(=O)c3cc(Cl)cc(C(F)(F)F)c3)[C@H](Cc3ccc(Cl)cc3)C2)CCO1.Cl.Cl`, the melting point was 148 to 153 °C. `Cl.Cl.Cl.O=C(c1cc(C(F)(F)F)cc(C(F)(F)F)c1)N1CCN(CCN2CCc3ncccc3C2)C[C@H]1Cc1ccc(C(F)(F)F)cc1` had a melting point of 174 to 180 °C. Still for that read-out and setting: to `CC1(C)COCCN1CC#CCN1CCN(C(=O)c2cc(C(F)(F)F)cc(C(F)(F)F)c2)[C@H](Cc2ccc(Cl)cc2)C1.Cl.Cl` belongs 120 to 150 °C. The compound `COC[C@@H]1CN(CCN2CCN(C(=O)c3cc(OC)cc(C(F)(F)F)c3)[C@H](Cc3ccc(F)cc3)C2)CCO1.Cl.Cl` had a melting point of 109.5 to 119.2 °C.

On to `Cl.Cl.O=C(c1cc(C(F)(F)F)cc(C(F)(F)F)c1)N1CCN(CCN2CCC(F)(F)CC2)C[C@H]1Cc1ccc2ccccc2c1`, for which the melting point was above 250 °C. Take `COc1cc(C(=O)N2CCN(Cc3cccnc3)C[C@H]2Cc2c[nH]c3ccccc23)cc(C(F)(F)F)c1.Cl.Cl`: the melting point lay within 190 to 200 °C. Consider `COc1cc(C(=O)N2CCN(CCN3CCc4ncccc4C3)C[C@H]2Cc2c[nH]c3ccccc23)cc(C(F)(F)F)c1.Cl.Cl.Cl`, for which the melting point was in the range of 180 to 190 °C. Same read-out and setting: with `Cc1ccc(CC2CN(CCN3C[C@@H](C)O[C@@H](C)C3)CCN2C(=O)c2cc(C(F)(F)F)cc(C(F)(F)F)c2)cc1O.Cl.Cl` (relative stereo) [Example 4-(1), 1-[3,5-Bis(trifluoromethyl)benzoyl]-4-[2-(cis-2,6-dimethylmorpholino)ethyl]-2-(3-hydroxy-4-methylbenzyl)piperazine dihydrochloride] the figure was 188 to 200 °C. For `COC[C@@H]1CN(CCN2CCN(C(=O)c3cc(C(F)(F)F)cc(C(F)(F)F)c3)C(Cc3ccc(C)c(O)c3)C2)[C@@H](C)CO1.Cl.Cl` (stereo partly drawn) [4-(2), 1-[3,5-Bis(trifluoromethyl)benzoyl]-2-(3-hydroxy-4-methylbenzyl)-4-[2-[(2S,5S)-2-methoxymethyl-5-methylmorpholino]ethyl]piperazine dihydrochloride], the melting point lay within 214 to 218 °C.

For the compound `COC[C@@H]1CN(CCN2CCN(C(=O)c3cc(C(F)(F)F)cc(C(F)(F)F)c3)[C@H](Cc3ccc(C)c(O)c3)C2)CCO1.Cl.Cl` [Example 5-(1)], the melting point is 207 to 210 °C.

As for `Cc1ccc(CC2CN(CC#Cc3cccnc3)CCN2C(=O)c2cc(C(F)(F)F)cc(C(F)(F)F)c2)cc1O.Cl.Cl` (stereo not shown) [Example 7, 1-[3,5-bis(trifluoromethyl)benzoyl]-2-(3-hydroxy-4-methylbenzyl)-4-[3-(3-pyridyl)-2-propynyl]piperazine dihydrochloride], the melting point is 180 to 190 °C.

For `Cc1ccc(CC2CN(CCCc3cccnc3)CCN2C(=O)c2cc(C(F)(F)F)cc(C(F)(F)F)c2)cc1O.Cl.Cl` (stereo not shown) [Example 8, 1-[3,5-bis(trifluoromethyl)benzoyl]-2-(3-hydroxy-4-methylbenzyl)-4-[3-(3-pyridyl)propyl]piperazine dihydrochloride], the melting point was in the range of 60 to 70 °C. Consider `O=C(c1cc(C(F)(F)F)cc(C(F)(F)F)c1)N1CCN(CC#Cc2cccnc2)C[C@H]1Cc1ccc(C(F)(F)F)cc1` [Example 9-(53), (2R)-1-[3,5-Bis(trifluoromethyl)benzoyl]-4-[3-(3-pyridyl)-2-propynyl]-2-[4-(trifluoromethyl)benzyl]-piperazine], for which the melting point was in the range of 142 to 143 °C. In the case of `COC[C@@H]1CN(CCN2CCN(C(=O)c3cc(C(F)(F)F)cc(C(F)(F)F)c3)[C@H](Cc3ccc(C)c(O)c3)C2)CCO1.Cl.Cl` [Example 13], the melting point was 206 to 224.5 °C.

The subject of another data set is Emesis in the dog. In words: Emesis in the dog (apomorphine-induced retching and vomiting). In kind it is in vivo. As to conditions: dose of 0.32 mg/kg i.v., 5 min before subcutaneous apomorphine (0.1 mg/0.5 ml/kg), observed for 60 min. On the procedure: Individually housed adult female dogs (8 to 15 kg) were given an i.v. injection of a solution containing a test compound. 5 Min later the emetic responses (retching and vomiting) were induced by administration of subcutaneous apomorphine (0.1 mg/0.5 ml/kg) and observed for the next 60 min. The timing and number of retches and vomits observed were recorded for each animal. An individual animal was tested with at least 10 days between experiments.
In the case of `Cc1ccc(CC2CN(CCN3C[C@@H](C)O[C@@H](C)C3)CCN2C(=O)c2cc(C(F)(F)F)cc(C(F)(F)F)c2)cc1O.Cl.Cl` (relative stereo) [Example 4-(1), 1-[3,5-Bis(trifluoromethyl)benzoyl]-4-[2-(cis-2,6-dimethylmorpholino)ethyl]-2-(3-hydroxy-4-methylbenzyl)piperazine dihydrochloride], the “inhibition rate of emesis in the dog” value amounted to 100%.
